Here are results for twelve compounds from patent US10059668B2 (Mirati Therapeutics, Inc., priority 2015, dated 2018).

Experiment [1] relates to MV4-11 cells. The experiment can be described thus: Inhibition of LSD1-mediated cellular proliferation, CellTiter Glo luminescence assay. In kind it is cell-based, human. The settings on record: Day 7, cell viability by CellTiter Glo.
Experimental: The MV4-11 cell line cell line was established from the blast cells of a person with biphenotypic B-myelomonocytic leukemia.
Inhibition of LSD1-mediated cellular proliferation by compounds of Formula (I) was measured in a CellTiter Glo luminescence assay (Promega Corp), which determines the number of viable cells by quantitating the amount of ATP, using a BMG LabTech CLARIOStar instrument in accordance with the manufacturer's instructions. Briefly, MV4-11 cells were plated at a density of 1000 cells/90 μl/well in 96 well culture plates and cultured in IMDM medium (Gibco) supplemented with 10% fetal bovine serum (FBS) and 1% penicillin and 1% streptomycin at 37° C. […] Control samples lacking test compound or cells were processed in parallel. The plates were incubated at 37° C. for four days and thereafter 50 μl fresh medium containing the same concentration of test compound was added. The plates were incubated for an additional three days (Day 7). A baseline measurement, as described below, was taken for a time zero point at Day 0.
At Day 7, the supernatant was removed by aspiration and the plate was allowed to equilibrate to room temperature (˜15 min). The cells were lysed using 45 μl (30 μl for Day 0) of Cell Titer Glo reagent (Promega Corp). The plates were shaken for two minutes and incubated at room temperature for 30 minutes. The degree of inhibition of cell viability was determined using a spectrophotometric readout by measuring the luminescence at 340 nm and the EC50 concentration for each compound was calculated using Graph Pad Prism 4 software.
In experiment [2] the target is purified N-terminal truncated human LSD1 enzyme (aa 151-852) (Homo sapiens (Human), UniProt O60341). The experiment in a line: LSD1 fluorescence coupling enzymatic assay (horseradish peroxidase/Amplex Red). Type of experiment: biochemical. The settings on record: 50 nM LSD1, 30 min pre-incubation, 10 μM histone 3.3 peptide (aa 1-21), 10-point dose-response; read-out: IC50 (nM), Inhibition of LSD1 Activity.
Experimental: Briefly, compounds of the present invention were solubilized in DMSO and a series of 10, three-fold serial dilutions were made for each compound in 15% DMSO. The initial starting concentration for the serial dilutions of each compound was 10 μM.
An aliquot of each serial dilution of test compound was added to a 96 well plate containing 50 nM purified N-truncated LSD1 enzyme (RBC Cat# PDM-11-350), 50 mM Tris-HCl, pH 7.5, 0.05% CHAPS and 1% DMSO in a 10 microliter reaction volume. The plate was pre-incubated at room temperature for 30 min to which 10 μM of histone 3.3 peptide (aa 1-21) was added to initiate the enzymatic reaction. The reaction mixture was incubated at room temperature for one hour. […] The IC50 value for each compound was determined from each 10-point dose-response curve using GraphPad Prism 4 software with a sigmodial dose response.

One may read the EC50 as the concentration giving half of the maximal effect. Low values mean a more potent agent, high ones a less potent agent. One may read the IC50 as the concentration needed to halve the response being measured.

In turn, `C(=C\c1nnn[nH]1)/c1cccc(CN2CCC(N[C@@H]3C[C@H]3c3ccccc3)CC2)c1` (relative stereo) [Example 14] returned a 50% effective concentration (EC50) in experiment [1] of 174 nM. For the same compound, the half-inhibitory concentration (IC50) in experiment [2] is 118 nM.

`CS(=O)(=O)NC(=O)c1ccc(CN2CCC(N[C@@H]3C[C@H]3c3ccccc3)CC2)cc1` [Example 34, N-(Methylsulfonyl)-4-((4-(((1R,2S)-2-phenylcyclopropyl)amino)piperidin-1-yl)methyl)benzamide]: a half-maximal effect in experiment [1] (Homo sapiens, 168 h) (EC50) was put at 60 nM. Also, the IC50 in experiment [2] was determined as 3 nM. For `C(=C\c1cccc(CN2CCC(N[C@@H]3C[C@H]3c3ccccc3)CC2)c1)/c1ccccc1` (relative stereo) [Example 13, N-(trans-2-phenylcyclopropyl)-1-(3-((E)-styryl)benzyl)piperidin-4-amine] the same measures were 37 nM and 17 nM.

In experiment [1] (Homo sapiens, 168 h), `CS(=O)(=O)NC(=O)Cc1ccc(CN2CCC(CN[C@@H]3C[C@H]3c3ccccc3)CC2)cc1` [Example 57] had an EC50 of 1 nM. For the same compound, in experiment [2], the IC50 worked out at 44 nM.

In experiment [1] (Homo sapiens, 168 h), `CS(=O)(=O)NC(=O)/C=C/c1ccc(CN2CCC(CN[C@@H]3C[C@H]3c3ccccc3)CC2)cc1` [Example 49, (E)-N-(methylsulfonyl)-3-(4-((4-((((1R,2S)-2-phenylcyclopropyl)amino)methyl)piperidin-1-yl)methyl)phenyl)acrylamide] came in with an EC50 of 26 nM.

For `O=C(/C=C/c1ccc(CN2CCC(CN[C@@H]3C[C@H]3c3ccccc3)CC2)cc1)NS(=O)(=O)c1ccccc1` [Example 48, (E)-3-(4-((4-((((1R,2S)-2-Phenylcyclopropyl)amino)methyl)piperidin-1-yl)methyl)phenyl)-N-(phenylsulfonyl)acrylamide], in experiment [1] (Homo sapiens, 168 h), the midpoint of the response, the EC50, lay at 9 nM. In addition, in experiment [2], the IC50 was 33 nM.

The compound `CS(=O)(=O)NC(=O)c1ccc(CN2CCC(CN[C@@H]3C[C@H]3c3ccccc3)CC2)cc1` [Example 53, N-(Methylsulfonyl)-4-((4-((((1R,2S)-2-phenylcyclopropyl)amino)methyl)piperidin-1-yl)methyl)benzamide] returned an EC50 in experiment [1] (Homo sapiens, 168 h) of 19 nM. In experiment [2], the IC50 was 27 nM. With `CONC(=O)/C=C/c1ccc(CN2CCC(N[C@@H]3C[C@H]3c3ccccc3)CC2)cc1` (relative stereo) [Example 1, (E)-N-Methoxy-3-(4-((4-(((trans)-2-phenylcyclopropyl)amino)piperidin-1-yl)methyl)phenyl)acrylamide], the concentration for half-maximal inhibition (IC50) in experiment [2] is 15 nM. Compound `CS(=O)(=O)NC(=O)Cc1ccc(CN2CCC(N[C@@H]3C[C@H]3c3ccccc3)CC2)cc1` [Example 35, N-(Methylsulfonyl)-2-(4-((4-(((1R,2S)-2-phenylcyclopropyl)amino)piperidin-1-yl)methyl)phenyl)acetamide] returned an EC50 in experiment [1] (Homo sapiens, 168 h) of 30 nM. Moreover, the IC50 in experiment [2] is 25 nM. With `CS(=O)(=O)NC(=O)/C=C/c1ccc(CN2CCC(N[C@@H]3C[C@H]3c3ccccc3)CC2)cc1` (relative stereo) [Example 2, (E)-N-(Methylsulfonyl)-3-(4-((4-(((trans)-2-phenylcyclopropyl)amino)piperidin-1-yl)methyl)phenyl)acrylamide], the concentration for half-maximal inhibition (IC50) in experiment [2] is 30 nM. The same measure, in the same setting: the result for `CS(=O)(=O)NC(=O)/C=C/c1ccc(CN2CCC(N[C@@H]3C[C@H]3c3ccccc3)CC2)cc1` [Example 15, (E)-N-(Methylsulfonyl)-3-(4-((4-(((1R,2S)-2-phenylcyclopropyl)amino)piperidin-1-yl)methyl)phenyl)acrylamide] reads 10 nM. In experiment [1], `C(=C\c1ccc(CN2CCC(N[C@@H]3C[C@H]3c3ccccc3)CC2)cc1)/c1ccccc1` (relative stereo) [Example 12] displayed an EC50 of 32 nM. Besides, the concentration for half-maximal inhibition (IC50) in experiment [2] worked out at 23 nM.
